The source of these data is patent publication US10577341B1, “Beraprost-314d monohydrate crystals and methods for preparation thereof” (CHIROGATE INTERNATIONAL INC., priority 2018, dated 2020).

Data set [1] in a line: Stability of anhydrous form versus monohydrate form of Beraprost-314d; assay and total impurities by HPLC after storage at 40° C. It is filed as physicochemical. To be noted: for Assay / Total Impurities: 40° C./60% RH, HPLC. The method, then: The Beraprost-314d monohydrate is stable at room temperature. For example, the formation of dimer and/or unwanted esterification byproducts by the presence of hydrates can be avoided. […] The assay and total impurities of Beraprost-314d monohydrate and anhydrous Beraprost-314d were measured by HPLC after treatment at 40° C., as shown in Table 3.

Data set [2] is described as follows: Crystalline form transformation of Beraprost-314d monohydrate Form A to Form B, followed by XRPD after isothermal standing. The settings on record: for XRPD pattern after heating (crystalline form): 24 hours. It is filed as physicochemical. The method, then:
X-ray Powder Diffraction (XRPD) Analysis: The XRPD patterns were collected on a Bruker D2 PHASER diffractometer with fixed divergence slits and 1D LYNXEYE detector. The samples (ca. 100 mg) were placed flat on a sample holder. The prepared samples were analyzed over a 2θ range from 5° to 50° with step size of 0.02 degrees and step time of 1 second using CuKα radiation at a power of 10 mA and 30 kV The CuKβ radiation was removed by a divergent beam nickel filter,
The critical temperature (T*). of crystalline form transformation of Beraprost-314d monohydrate Form A and Form B was determined. Crystalline Beraprost-314d monohydrate Form A (0.10 g, from Example 3) was placed in glass vials, and heated to 25° C., 27° C., 29° C., 31° C., 33° C., and 35° C. and isothermal stood for 24 hours.

Setting [3] is: 3 days, listed as Beraprost-314d monohydrate, monohydrate.

For `CC#CC[C@H](C)[C@H](O)/C=C/[C@@H]1[C@H]2c3cccc(CCCC(=O)O)c3O[C@H]2C[C@H]1O` [Anhydrous Beraprost-314d, Beraprost-314d], the Assay in data set [1] (1 day) is reported as 99.30%; in data set [1] (2 days), 99.01%; in data set [1] (3 days) it was 98.95%. For the same molecule, the “Total Impurities” value in data set [1] (1 day) is 0.84%; in data set [1] (3 days), 1.19%.

For the molecule `CC#CC[C@H](C)[C@H](O)/C=C/[C@@H]1[C@H]2c3cccc(CCCC(=O)O)c3O[C@H]2C[C@H]1O.O` [Beraprost-314d Monohydrate, Beraprost-314d monohydrate], the “Stability compared with the anhydrous form” value in data set [1] (40° C. for 3 days) is reported as “more stable than the anhydrous Beraprost-314d”. Further, the Assay in data set [1] (1 day) is reported as 99.89%; in data set [1] (2 days), 99.77%; in data set [1] (setting [3]), “no apparent decrease”; in data set [1] (3 days, monohydrate), 99.69%. Also, the “Total Impurities” value in data set [1] (1 day) turned out to be 0.17%; in data set [1] (2 days), 0.25%; in data set [1] (setting [3]), 0.33%; in data set [1] (3 days, monohydrate), 0.33%.

Take `CC#CC[C@H](C)[C@H](O)/C=C/[C@@H]1[C@H]2c3cccc(CCCC(=O)O)c3O[C@H]2C[C@H]1O.O` [Beraprost-314d monohydrate]: the “XRPD pattern after heating (crystalline form)” value is “remain Form A without any Form B feature peaks” in data set [2] (25° C., 27° C. and 29° C.); “an intermediate state containing both Form A and Form B” in data set [2] (31° C., 33° C. and 35° C.). Moreover, in data set [2] (isothermal standing for 24 hours, XRPD), the “Critical temperature (T*) of crystalline form transformation from Form A to Form B” value is “about 30±5 °C”.
